Where two headings read alike, the source gives them in different places. Where only a bound is given, the exact number is not on record here.

These results are taken from patent US10638750B2, “Compositions containing a hollow glucan particle or a cell wall particle encapsulating a terpene component, methods of making and using them” (Eden Research PLC, priority 2004, dated 2020).

One series deals with Saccharomyces cerevisiae. The series can be described thus: Saccharomyces cerevisiae MIC assays comparing free terpene emulsions with yeast-encapsulated terpenes. The format is cell-based. To be noted: free terpene emulsion; for Cidal MIC Free terpene emulsions: re-incubation in fresh medium. The procedure: One column was designated as a cell-only control and no terpene was added to these wells. Serial 2-fold dilutions were performed by transferring 100 μL from one row to the next a total of 7 times. […] Microtitre plates were incubated statically overnight at 30° C. […] Growth inhibition was visually confirmed by microscopy. For the free terpene emulsions, once the MIC had been determined for each formulation, the microtitre plates were centrifuged and the spent medium was removed from the growth-inhibited wells. The cells were resuspended in fresh medium (100 μL) and the plates were re-incubated overnight at 30° C. Assessment of growth inhibition was performed as before.

The next series concerns S. aureus. Briefly: MIC of terpene emulsions and fresh or freeze-dried Baker's YP and SAF Mannan encapsulated terpenes. The format is cell-based. To be noted: for MIC: Staphylococcus aureus. The method, then:
The results of a protocol performed to compare the MIC of fresh versus freeze dried hollow glucan particle encapsulated terpene formulations are shown below in Table 13. A simple terpene emulsion was also tested and the results are shown for comparison.

In another series the test system is H. pylori. To be noted: in vitro; cited from earlier work.
Series [1] can be described thus: Citral solution and stable suspension limits. The format is physicochemical.
Series [2] is described as follows: Terpene stability by formation of a yellow colored oxidation product of citral. Type of series: physicochemical.
The subject of a further series is E. coli. To be noted: cited from earlier work.
The mark [3] stands for this setting: encapsulated in Baker's YP, freeze dried, read-out: MIC μg/ml terpene, Bakers Freeze Dried.
[4] abbreviates: encapsulated in Baker's YP, fresh, read-out: MIC μg/ml terpene, Bakers Fresh.
[5] abbreviates: encapsulated in SAF Mannan, freeze dried, read-out: MIC μg/ml terpene, SAF Mannan Freeze Dried.
The mark [6] stands for this setting: encapsulated in SAF Mannan, fresh, read-out: MIC μg/ml terpene, SAF Mannan Fresh.
Where [7] appears, read: terpene emulsion, not encapsulated, read-out: MIC μg/ml terpene, Emulsion.

Consider `C=C(C)[C@@H]1CC=C(C)C(=O)C1` [L (5)], for which, in the series on Saccharomyces cerevisiae, the “MIC Free terpene emulsions” value turned out to be 250 ppm and the “Cidal MIC Free terpene emulsions” value was 500 ppm.
As to `CC(C)=CCC/C(C)=C/CO` [Geraniol, geraniol], the MIC in the series on S. aureus (setting [3]) was 0.06 µg/mL; with S. aureus (setting [4]), 0.03 µg/mL; in the series on S. aureus (setting [5]), over 0.03 µg/mL; in the series on S. aureus (setting [6]) it was 0.02 µg/mL; with S. aureus (setting [7]) it was 0.47 µg/mL. The “concentration that inhibited the growth of H. pylori” value in the series with H. pylori is recorded as 2 mg/L.
As for `Cc1ccc(C(C)C)c(O)c1` [T (3)], in the series with Saccharomyces cerevisiae, the “MIC Free terpene emulsions” value is listed as 125 ppm and the “Cidal MIC Free terpene emulsions” value turned out to be 250 ppm.
With L-carvone, the “MIC μg/ml terpene, Bakers Freeze Dried” value with S. aureus (encapsulated in Baker's YP, freeze dried) is over 0.04 µg/mL. In the series with S. aureus (encapsulated in Baker's YP, fresh), the “MIC μg/ml terpene, Bakers Fresh” value was 0.1 µg/mL. Further, the “MIC μg/ml terpene, SAF Mannan Freeze Dried” value in the series on S. aureus (encapsulated in SAF Mannan, freeze dried) is over 0.02 µg/mL. In addition, in the series with S. aureus (encapsulated in SAF Mannan, fresh), the “MIC μg/ml terpene, SAF Mannan Fresh” value was determined as 0.01 µg/mL. Moreover, the “MIC μg/ml terpene, Emulsion” value in the series on S. aureus (terpene emulsion, not encapsulated) turned out to be 3.75 µg/mL.
On to `CC(C)=CCC/C(C)=C/CO` [G (1)], for which, in the series on Saccharomyces cerevisiae, the “MIC Free terpene emulsions” value was found to be 250 ppm and the “Cidal MIC Free terpene emulsions” value is reported as 250 ppm.
Turning to `CC(C)=CCCC(C)=CC=O` [Citral, 3,7-dimethyl-2,6-octadien-1-al], the MIC with S. aureus (setting [3]) was 0.05 µg/mL; in the series on S. aureus (setting [4]), 0.01 µg/mL; in the series with S. aureus (setting [5]), over 0.03 µg/mL; with S. aureus (setting [6]), 0.01 µg/mL; with S. aureus (setting [7]) it was 0.94 µg/mL. The “concentration up to which a solution can be made” value in series [1] is on record as “about 500 ppm”. Further, the “concentration up to which a stable suspension can be formed” value in series [1] is “about 2500 ppm”. Moreover, the “yellow color (citral oxidation product) over time” value in series [2] (aqueous emulsion) and in series [2] (encapsulated in Bakers YP) was “turned a progressively increasing yellow color over time” in each case. In addition, in series [2] (encapsulated in SAF Mannan), the “citral stability (yellow color over time)” value is recorded as “increased citral stability”. Besides, in series [2] (loaded in SAF Mannan, after 24 hours at 37° C.), the “citral stability (absence of yellow colour)” value was “remains stable”. Further, in the series with E. coli, the “concentration in growth media that reduced the concentration of E. coli” value was “more than 0.01%”. Moreover, the “concentration with bactericidal effect” value in the series on E. coli was 0.08%.
Regarding `C=CCc1ccc(O)c(OC)c1` [E (2)], in the series on Saccharomyces cerevisiae, the “MIC Free terpene emulsions” value is on record as 125 ppm and the “Cidal MIC Free terpene emulsions” value amounted to 250 ppm.
On the same counts, the results for `CC(C)=CCCC(C)=CC=O` (mixture of isomers) [C (4)] are 125 ppm and 250 ppm.
Regarding `C=CCc1ccc(O)c(OC)c1` [Eugenol, eugenol], the MIC with S. aureus (setting [3]) was 0.05 µg/mL; in the series on S. aureus (setting [4]), 0.03 µg/mL; in the series on S. aureus (setting [5]), 0.05 µg/mL; in the series with S. aureus (setting [6]), 0.01 µg/mL; with S. aureus (setting [7]), 0.12 µg/mL.
